The values that follow come from patent US20080139558A1, “QUINOLONES USEFUL AS INDUCIBLE NITRIC OXIDE SYNTHASE INHIBITORS” (KALYPSYS, INC., priority 2006, published 2008).

What is called pEC50 is the EC50 on a negative log10 scale, so that one unit is a factor of ten.

pEC50: −log10 of the molar value.

T1 sequence (P35228 whole entry): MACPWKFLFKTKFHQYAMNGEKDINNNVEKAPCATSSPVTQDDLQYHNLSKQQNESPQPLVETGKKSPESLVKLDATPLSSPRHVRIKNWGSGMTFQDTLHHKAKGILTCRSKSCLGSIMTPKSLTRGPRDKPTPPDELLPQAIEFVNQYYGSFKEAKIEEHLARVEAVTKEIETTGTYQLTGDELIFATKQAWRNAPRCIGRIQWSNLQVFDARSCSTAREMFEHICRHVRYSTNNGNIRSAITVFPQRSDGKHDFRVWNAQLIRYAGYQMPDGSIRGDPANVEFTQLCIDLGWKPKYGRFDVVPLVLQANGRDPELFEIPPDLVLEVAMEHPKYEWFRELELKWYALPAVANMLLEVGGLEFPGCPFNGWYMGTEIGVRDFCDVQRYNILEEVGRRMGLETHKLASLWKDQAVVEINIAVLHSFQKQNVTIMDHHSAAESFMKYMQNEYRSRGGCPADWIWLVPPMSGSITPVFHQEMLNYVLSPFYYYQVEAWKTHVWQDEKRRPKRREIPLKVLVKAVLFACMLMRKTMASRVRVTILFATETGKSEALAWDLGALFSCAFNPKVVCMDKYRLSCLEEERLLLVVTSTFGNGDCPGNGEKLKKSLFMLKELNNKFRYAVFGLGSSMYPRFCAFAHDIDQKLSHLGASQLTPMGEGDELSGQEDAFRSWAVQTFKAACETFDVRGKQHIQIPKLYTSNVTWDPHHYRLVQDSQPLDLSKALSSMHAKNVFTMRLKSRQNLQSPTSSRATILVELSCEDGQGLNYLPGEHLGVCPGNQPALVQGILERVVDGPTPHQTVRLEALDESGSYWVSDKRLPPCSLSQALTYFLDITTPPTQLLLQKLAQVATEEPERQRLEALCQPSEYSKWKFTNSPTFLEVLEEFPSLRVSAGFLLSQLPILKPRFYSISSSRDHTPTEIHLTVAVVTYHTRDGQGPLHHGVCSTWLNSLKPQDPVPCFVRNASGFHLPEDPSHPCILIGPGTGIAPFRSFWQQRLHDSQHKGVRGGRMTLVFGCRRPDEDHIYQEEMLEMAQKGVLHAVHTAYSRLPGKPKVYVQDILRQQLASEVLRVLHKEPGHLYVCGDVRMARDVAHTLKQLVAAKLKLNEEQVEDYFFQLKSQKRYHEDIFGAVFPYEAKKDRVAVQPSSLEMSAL

The experiment addresses T1, human iNOS (Homo sapiens, UniProt P35228).
T1 construct: expressed in transfected cells; host or cells: HEK293
Nature of the experiment: DAN assay of nitric oxide production (hiNOS). In kind it is cell-based. The conditions noted are these: enzyme expressed in HEK293 cells transiently transfected with human iNOS. An excerpt:
The source of nitric oxide synthase (NOS) enzyme can be generated in several ways including induction of endogenous iNOS using cytokines and/or lipopolysaccharide (LPS) in various cell types known in the art. Alternatively, the gene encoding the enzyme can be cloned and the enzyme can be generated in cells via heterologous expression from a transient or stable expression plasmid with suitable features for protein expression as are known in the art. Enzymatic activity (nitric oxide production) is calcium independent for iNOS, while the constitutive NOS isoforms, nNOS and eNOS, become active with the addition of various cofactors added to cellular media or extract as are well known in the art. Enzymes specified in Table 1 were expressed in HEK293 cells transiently transfected with human iNOS.
A major metabolic pathway for nitric oxide is to nitrate and nitrite, which are stable metabolites within tissue culture, tissue, plasma, and urine (S Moncada, A Higgs, N Eng J Med 329, 2002 (1993)).
The level of nitrate or nitrite in the specimen can be quantified by any method known in the art which provides adequate sensitivity and reproducibility. A variety of protocols have also been described for detecting and quantifying nitrite and nitrate levels in biological fluids by ion chromatography (e.g., A Everett et al., J. Chromatogr. 706, 437 (1995); J M Monaghan et al., J. Chromatogr. 770, 143 (1997)), high-performance liquid chromatography (e.g., M Kelm et al., Cardiovasc. Res. 41, 765 (1999)), and capillary electrophoresis (MA Friedberg et al., J. Chromatogr. 781, 491 (1997)). For example, 2,3-diaminonaphthalene reacts with the nitrosonium cation that forms spontaneously from NO to form the fluorescent product 1H-naphthotriazole. Using 2,3-diaminonaphthalene (“DAN”), researchers have developed a rapid, quantitative fluorometric assay that can detect from 10 nM to 10 μM nitrite and is compatible with a multi-well microplate format. […] DAN reacts with nitrite ion and gives fluorescent naphthotriazole (MC Carré et al., Analusis 27, 835-838 (1999)). Table 1 provides the test results of various compounds of the subject invention using the DAN assay.
A specimen can be processed prior to determination of nitrate or nitrite as required by the quantification method, or in order to improve the results, or for the convenience of the investigator. For example, processing can involve centrifuging, filtering, or homogenizing the sample. If the sample is whole blood, the blood can be centrifuged to remove cells and the nitrate or nitrite assay performed on the plasma or serum fraction. If the sample is tissue, the tissue can be dispersed or homogenized by any method known in the art prior to determination of nitrate or nitrite. It may be preferable to remove cells and other debris by centrifugation or another method and to determine the nitrate or nitrite level using only the fluid portion of the sample, or the extracellular fluid fraction of the sample. The sample can also be preserved for later determination, for example by freezing of urine or plasma samples. When appropriate, additives may be introduced into the specimen to preserve or improve its characteristics for use in the nitrate or nitrite assay.
The “level” of nitrate, nitrite, or other NO-related product usually refers to the concentration (in moles per liter, micromoles per liter, or other suitable units) of nitrate or nitrite in the specimen, or in the fluid portion of the specimen. However, other units of measure can also be used to express the level of nitrate or nitrite. For example, an absolute amount (in micrograms, milligrams, nanomoles, moles, or other suitable units) can be used, particularly if the amount refers back to a constant amount (e.g., grams, kilograms, milliliters, liters, or other suitable units) of the specimens under consideration. A number of commercially available kits can be used. […]
The molecule `Cc1ncsc1C(=O)N(c1cccc(Cl)c1)C(C)c1cc(=O)[nH]c2c(F)cccc12` (racemic) [Example 113, N-(3-Chlorophenyl)-N-(1-(8-fluoro-2-oxo-1,2-dihydroquinolin-4-yl)ethyl)-4-methylthiazole-5-carboxamide] had a pEC50 not below 5.30.
With `CC1CCCCN1c1nc2ccccc2n1Cc1cc(=O)[nH]c2c(F)c(F)ccc12` (racemic) [Example 206, 7,8-Difluoro-4-((2-(2-methylpiperidin-1-yl)-1H-benzo[d]imidazol-1-yl)methyl)quinolin-2(1H)-one], the pEC50 is not below 5.30.
For `CCC(C)Cc1nc2ccccc2n1Cc1cc(=O)[nH]c2c(F)c(F)ccc12` (racemic) [Example 220, 7,8-Difluoro-4-((2-(2-methylbutyl)-1H-benzo[d]imidazol-1-yl)methyl)quinolin-2(1H)-one] the value was not below 5.30.
For `CC(Cc1nc2ccccc2n1Cc1cc(=O)[nH]c2c(F)c(F)ccc12)C(F)(F)F` (racemic) [Example 222, 7,8-Difluoro-4-((2-(3,3,3-trifluoro-2-methylpropyl)-1H-benzo[d]imidazol-1-yl)methyl)quinolin-2(1H)-one] the value was not below 5.30; for `CC1CC1c1nc2ccccc2n1Cc1cc(=O)[nH]c2c(F)c(F)ccc12` (racemic) [Example 238, 7,8-Difluoro-4-((2-(2-methylcyclopropyl)-1H-benzo[d]imidazol-1-yl)methyl)quinolin-2(1H)-one], less than 5.30; for `O=c1cc(Cn2c(C3CCCO3)nc3ccccc32)c2ccc(F)c(F)c2[nH]1` (racemic) [Example 250, 7,8-Difluoro-4-((2-(tetrahydrofuran-2-yl)-1H-benzo[d]imidazol-1-yl)methyl)quinolin-2(1H)-one], not below 5.30.
For `CC=C(C)c1nc2ccccc2n1Cc1cc(=O)[nH]c2c(F)c(F)ccc12` (single isomer, unassigned) [Example 210, (E or Z)-4-((2-(But-2-en-2-yl)-1H-benzo[d]imidazol-1-yl)methyl)-7,8-difluoroquinolin-2(1H)-one] the value was not below 5.30.
On to `O=C(c1ccco1)N(Cc1cc(=O)[nH]c2ccccc12)c1ccccc1` [Example 1, N-((2-Oxo-1,2-dihydroquinolin-4-yl)methyl)-N-phenylfuran-2-carboxamide], for which the pEC50 was not below 5.30.
As for `O=C(c1ccco1)N(Cc1cc(=O)[nH]c2ccccc12)c1ccc(Cl)cc1` [Example 2, N-(4-Chlorophenyl)-N-((2-oxo-1,2-dihydroquinolin-4-yl)methyl)furan-2-carboxamide], the figure is less than 5.30; as for `CC(=O)N(Cc1cc(=O)[nH]c2ccccc12)c1ccccc1` [Example 3, N-[(2-Oxo-1,2-dihydroquinolin-4-yl)methyl]-N-phenylacetamide], less than 5.30; as for `CCC(=O)N(Cc1cc(=O)[nH]c2ccccc12)c1ccccc1` [Example 4, N-((2-Oxo-1,2-dihydroquinolin-4-yl)methyl)-N-phenylpropionamide], less than 5.30.
For `CC(C)C(=O)N(Cc1cc(=O)[nH]c2ccccc12)c1ccccc1` [Example 5, N-((2-Oxo-1,2-dihydroquinolin-4-yl)methyl)-N-phenylisobutyramide] the value was less than 5.30; for `O=C(c1ccccc1)N(Cc1cc(=O)[nH]c2ccccc12)c1ccccc1` [Example 6, N-[(2-Oxo-1,2-dihydroquinolin-4-yl)methyl]-N-phenylbenzamide], less than 5.30; for `O=C(c1cccs1)N(Cc1cc(=O)[nH]c2ccccc12)c1ccccc1` [Example 7, N-[(2-Oxo-1,2-dihydroquinolin-4-yl)methyl]-N-phenylthiophene-2-carboxamide], less than 5.30.
For `CN(Cc1cc(=O)[nH]c2ccccc12)C(=O)c1ccco1` [Example 8, N-Methyl-N-[(2-oxo-1,2-dihydroquinolin-4-yl)methyl]-2-furamide] the value was not below 5.30; for `CC(C)N(Cc1cc(=O)[nH]c2ccccc12)C(=O)c1ccco1` [Example 9, N-Isopropyl-N-[(2-oxo-1,2-dihydroquinolin-4-yl)methyl]-2-furamide], not below 5.30.
